The results in this text go back to patent US7018796B2, “Preincubation assay methods” (Shionogi & Co., Ltd., priority 2000, dated 2006).

This test has as its target T1, HCV RNA-dependent RNA polymerase (Hepatitis C virus genotype 1a, UniProt P27958).
T1 construct: HCV RNA-dependent RNA polymerase is encoded in the NS5B (nonstructural protein 5B) region of HCV; made in house; host or cells: insect cells or E. coli
The test can be described thus: Pre-incubation assay method with 3H-UTP (Example 1). To be noted: pre-incubation 25° C. 60 min, method of Example 1; for inhibition at 100 µg/mL: 100 μg/ml, read-out: Inhibition rate at a concentration of 100 μg/ml. The format is biochemical. On the procedure: A HCV RNA-dependent RNA polymerase, template RNA, primer RNA and Mg ion (Mg^2+) are pre-incubated at approximately 25° C. for approximately 1 hour. After that, substrate RNA and a test substance are added to start an enzyme reaction and measure an enzyme activity. IC50 value can be calculated by comparing with an enzyme activity measured in the absence of a test substance as well as the above prior method. An inhibitor can be selected by comparing IC50. An example of a procedure of this method is shown in the later described Example 1.
A cDNA encoding HCV RNA-dependent RNA polymerase was made by use of HCV positive human plasma and HCV RNA-dependent RNA polymerase was expressed using the insect cells or the E. coli. HCV RNA-dependent RNA polymerase in the cell extract was purified by use of an anion exchange chromatography, a heparin affinity chromatography, a polyU affinity chromatography, a cation exchange chromatography and gel filtration chromatography. The purification was performed at 4° C. and Tris buffer (pH 7.5) containing ethylenediaminetetraacetic acid (1 mM), dithiothreitol (10 mM) and glycerol (20%) was used. The enzyme purified was stored at 4° C. until use for the assays.
• 1) The buffer I ^1) (10.5 μl) containing Tris-HCl (100 mM, pH 7.5), MgCl2 (25 mM), dithiothreitol (5 mM), KCl (125 mM) and ethylenediaminetetraacetic acid (5 mM) was transferred to a polypropylene tube and then poly(A)^2) solution (100 μg/ml, 10.5 μl), oligo(U)12 ^3) solution (1 μg/ml, 10.5 μl) and water (8 μl) were added into the tube and mixed. • 2) Next, HCV RNA-dependent RNA polymerase (10.5 μl) was added into the tube and pre-incubated at 25° C. for […]. • 3) The enzyme solution pre-incubated (50 μl) was added to a test compound (5.26 μl/well) dissolved with dimethyl sulfoxide or water in a well of a 96-wells microtiter plate. • 4) Additionally, the buffer II (10.6 μl) containing Tris-HCl (100 mM, pH 7.5), MgCl2 (25 mM), dithiothreitol (5 mM), KCl (125 mM), ethylenediaminetetraacetic acid (5 mM) and UTP • 4) (2.1 μM, 1 μCi ^3H-UTP), was mixed with water (39.4 μl). The mixture (50 μl) was added into the well and mix, and then the enzyme reaction was performed at 25° C. for 30 min. • 5) After enzyme reaction for 30 min, the enzyme reaction was stopped by adding disodium ethylenediaminetetraacetic acid (50 mM, 50 μl). • 6) By use of the cell-harvester, all volume of the enzyme reaction sample was transferred onto a filtermat bound with diethylaminoethyl base (referred to as DEAE-filtermat) and washed twice for 10 sec with sodium phosphate buffer (0.25 M, pH 7.0) and once for 10 sec with de-ionized water. • 7) The DEAE-filtermat was dried at 95° C. for 15 min and transferred into a sample bag with liquid scintillater (10 ml), and then a sample bag was sealed. • 8) The radio activity was measured by a scintillation counter. • 9) The inhibitory rate was calculated from the radioactivity measured (ccpm) as follows. [formula]
The concentration of compound at 50% inhibition (IC50 value) was calculated from the compound concentration used and the inhibitory rate calculated.
When use of a compound at a μg/ml results in A % inhibition and use of a compound at β μg/ml results in B % inhibition on condition of A≧50>B the IC50 value is obtained by the calculation as follows. IC50 (μg/ml)=10^[(50−B)/(A−B)×(log^α^−log^β^)+log^β^]

pIC50: −log10 of the molar value. A value given as a limit tells only on which side of the number the result lay.

T1 sequence (P27958 2421-3011): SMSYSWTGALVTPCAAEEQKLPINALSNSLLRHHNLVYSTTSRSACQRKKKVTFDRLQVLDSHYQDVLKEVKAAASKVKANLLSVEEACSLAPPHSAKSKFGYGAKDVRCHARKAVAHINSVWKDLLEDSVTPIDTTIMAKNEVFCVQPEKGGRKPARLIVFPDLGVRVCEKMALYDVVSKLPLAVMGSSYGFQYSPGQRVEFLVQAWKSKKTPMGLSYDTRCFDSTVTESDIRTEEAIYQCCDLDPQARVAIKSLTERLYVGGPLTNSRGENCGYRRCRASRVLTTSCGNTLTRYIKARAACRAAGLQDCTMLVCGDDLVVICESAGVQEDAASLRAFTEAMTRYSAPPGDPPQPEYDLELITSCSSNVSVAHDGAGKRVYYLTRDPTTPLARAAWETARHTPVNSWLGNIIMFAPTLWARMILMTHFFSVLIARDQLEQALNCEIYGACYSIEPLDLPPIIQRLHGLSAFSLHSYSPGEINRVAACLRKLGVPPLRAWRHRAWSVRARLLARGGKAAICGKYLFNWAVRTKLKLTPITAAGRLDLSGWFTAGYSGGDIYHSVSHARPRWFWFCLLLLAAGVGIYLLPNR

Consider `O=C(O)C(O)=CC(=O)c1ccc(O)cc1` [Compound I-2], for which the inhibition at 100 µg/mL worked out at 99% and the pIC50 is 5.36.
The corresponding values for `Cc1ccc(C(=O)C=C(O)C(=O)O)cc1` [Compound I-3] are 99% and 5.31.
The corresponding values for `Nc1ccc(C(=O)C=C(O)C(=O)O)cc1` [Compound I-4] are over 99% and 5.17.
Take `O=C(O)C(O)=CC(=O)c1ccccc1` [Compound I-5]: the inhibition at 100 µg/mL was 98% and the pIC50 is 4.92.
For the compound `Cc1ccc(C(=O)C=C(O)C(=O)O)s1` [Compound I-6], the inhibition at 100 µg/mL was found to be 97% and the pIC50 was 4.84.
The corresponding values for `O=C(O)C(O)=CC(=O)c1ccc2ccccc2c1` [Compound I-7] are 95% and 4.55.
The corresponding values for `O=C(O)C(O)=CC(=O)c1cc2ccccc2[nH]1` [Compound I-8] are 95% and 4.53.
The corresponding values for `O=C(O)C(O)=CC(=O)c1ccc(Cl)cc1` [Compound I-9] are 94% and 4.50.
In the case of `O=C(O)C(O)=CC(=O)c1ccsc1` [Compound I-10], the inhibition at 100 µg/mL was found to be 94% and the pIC50 is 4.44.
The corresponding values for `O=C(O)C(O)=CC(=O)c1ccc(F)cc1` [Compound I-11] are 94% and 4.45.
The corresponding values for `COc1cccc(C(=O)C=C(O)C(=O)O)c1` [Compound I-12] are 94% and 4.42.
As to `O=C(O)C(O)=CC(=O)c1cccs1` [Compound I-13], the inhibition at 100 µg/mL was determined as 92% and the pIC50 is 4.36.
In the case of `O=C(O)C(O)=CC(=O)c1cccc(Br)c1` [Compound I-14], the inhibition at 100 µg/mL came to 93% and the negative logarithm of the IC50 (pIC50) was 4.48.
Consider `Cn1cccc1C(=O)C=C(O)C(=O)O` [Compound I-15], for which the inhibition at 100 µg/mL was 94% and the pIC50 was 4.30.
As to `O=C(O)C(O)=CC(=O)c1ccc[nH]1` [Compound I-16], the inhibition at 100 µg/mL was found to be 92% and the pIC50 was 4.26.
Turning to `COc1cc(C(=O)C=C(O)C(=O)O)ccc1O` [Compound I-17], the inhibition at 100 µg/mL stood at 92% and the pIC50 is 4.34.
The corresponding values for `O=C(O)C(O)=CC(=O)c1ccc(Cl)cc1Cl` [Compound I-18] are 90% and 4.30.

In general, pIC50 refers to the IC50 on a negative log10 scale, so that one unit is a factor of ten. A high value points to a small IC50.
